According to patent publication US9981988B2, “Polymorphic forms and co-crystals of a c-Met inhibitor” (AMGEN, INC., priority 2014, dated 2018):

Assay: Solubility in organic solvents
Type: physicochemical
Conditions: 20 °C, organic solvent or mixture, thermodynamic from solid; about 20 to about 25° C.; solvent not given
Description: In all studies, excess solid of the compound was allowed to equilibrate for at least 12 hours while stirring.

solubility: ~164 mg/mL
SMILES: COCCOc1cnc2ccn([C@H](C)c3nnc4c(F)cc(-c5cnn(C)c5)cn34)c(=O)c2c1 [DMSO hemisolvate form of Compound M, 6-{(1R)-1-[8-fluoro-6-(1-methyl-1H-pyrazol-4-yl)[1,2,4]triazolo[4,3-a]pyridin-3-yl]ethyl}-3-(2-methoxyethoxy)-1,6-naphthyridin-5(6H)-one]
